One data set has as its system Fibroblast cells. The data set is described as follows: Cytotoxicity test, Alamar Blue reduction. The class given is cell-based. The settings on record: fibroblasts, 24 hours, relative to control cells. The procedure: Fibroblast cells (14th passage) were thawed and cultured in […] flasks with culture medium at 37° C., humidified atmosphere and 5% CO2. The cells were cultured with modified Eagle's medium supplemented with 10% fetal bovine serum, 1% L-glutamine and 0.1% penicillin-streptomycin-nystatin. At confluence of 70% (at passages 16-19) the cells were separated using incubation for 3 minutes with 1 ml trypsin A, the free cells were added to the culture medium and seeded in a 6 well plate.
When confluence of 70% was reached the medium was replaced by 2 ml of medium containing 10% v/v Alamar blue for 4 hours of incubation. Thereafter, two 100 μL samples were taken from each well and inserted to a 96 well plate. The plate was inserted for analysis at a spectrophotometer (Spectra max 340 PC384, Molecular Devices) at 570 and 600 nm.
Two experiments were carried out, at first each component of the bioadhesive were inserted separately to a test tube containing 4 ml medium and incubated for 24 hours and then that medium was added to the cells instead of the medium containing Alamar Blue. In the second experiment, the medium with Alamar Blue was replaced with 4 ml of fresh medium and 0.1 ml of bioadhesive was added to the medium and incubated for 24 hours followed by another reading using Alamar Blue.
The reduction of Alamar Blue's absorption was calculated using the manufacturer's protocol, namely Alamar Blue reduction=(ε600A^t570−ε570A^t600)/(ε570A^c600−ε600A^c570), wherein ε570 and ε600 are the molar extinction coefficients of oxidized Alamar Blue at 570 nm and 600 nm respectively, A^t and Ac are the absorbance of test and control respectively at 570 nm and 600 nm respectively, whereas the control is taken as the medium with Alamar blue but without any cells.
On the technique in general: The colour change of resazurin is a common sign of viable cells or microbes.

For data set [1] the following is noted: cited from earlier work.

Structures can show the parent of a compound that is named as a salt.

Broadly, the cell viability is the share of living cells, or the viability signal relative to a control. High values mean less harm to the cells, low ones more harm to the cells. In the case of `CCCCN1CCCCC1C(=O)Nc1c(C)cccc1C` (centres unmarked) [bupivacaine, Bupivacaine hydrochloride], the results for the cell viability with Fibroblast cells (aqueous drug solution 2% w/v) and in the data set with Fibroblast cells (aqueous drug solution 3% w/v) were 67.6% and 58.8%, respectively. The “isoelectric points (pKa)” value in data set [1] is reported as 8.1-8.4.

In the case of `CC(C)Cc1ccc(C(C)C(=O)[O-])cc1.[Na+]` (centres unmarked) [ibuprofen, Ibuprofen sodium salt], the figures for the cell viability in the data set on Fibroblast cells (aqueous drug solution 2% w/v) and in the data set with Fibroblast cells (aqueous drug solution 3% w/v) were 93.5% and 79.7%, respectively.

The values above are taken from patent US10265274B2, “Formulations and kits for forming bioadhesive matrices” (Technology Innovation Momentum Fund (Israel) Limited …, priority 2012, dated 2019).
